The record followed here is patent publication US11633378B2, “Methods and compositions for delivering mycophenolic acid active agents to non-human mammals” (OKAVA PHARMACEUTICALS, INC., priority 2017, dated 2023).

SMILES strings stand for the structures. Read-outs that look alike come from different tables or passages of the source.

This series can be described thus: Study 1: single dose cross-over pharmacokinetics, oral vs intracolonic Na.MPA. Set-up: species or system male beagle dogs. As to conditions: dog, in vivo. How it is done:
Two single dose cross-over studies were conducted using a canine model (male beagle dogs) to evaluate the potential of an enteric coated-extended release sodium mycophenolate formulation (“EC-ER-Na.MP”). In a first cross-over study, the pharmacokinetics of MPA and its metabolites (MPAG and AcMPAG) following oral dosing of 180 mg of EC-Na.MPA was compared with intracolonic (IC) administration of Na.MPA. In a second cross-over study, 270 mg of an EC-ER-Na.MPA formulation was administered in the both fed and fasted states and pharmacokinetics were compared with oral administration of 10 mg/kg MMF in the fasted state. Both studies were conducted by Absorption Systems (San Diego, Calif.).
Study 1: For three days prior to IC dosing, dogs (n=5) were offered a soft diet consisting of canned wet food (Pedigree® Choice Cuts). Otherwise, the dogs were offered their standard diet (LabDiet 5006 laboratory canine diet). Prior to each dosing event, the dogs were fasted for 12 hours prior to dosing until 4 hours post-dose, when food was returned. Animals had free access to water throughout the study. Prior to IC dosing, each dog was given a non-stimulant enema approximately 1 hour prior to dosing to remove feces from the colon. Prior to PO dosing, each dog (n=5) was pre-treated with an intramuscular dose of pentagastrin (6 μg/kg) approximately 30 minutes prior to dosing. Capsules were administered by placement in the back of the throat followed by a 10 mL flush with water.
Each dog received a total dose of 180 mg of MPA for each dose. For IC dosing, MPA was delivered as a solution via an endoscope, and for PO dosing each dog received a single Myfortic® 180 mg enteric coated capsule. Following administration, blood samples were collected up to 24 hours post-dose. Plasma concentrations of MPA, MPAG, and AcMPAG were determined with a qualified LC-MS/MS method, and pharmacokinetic parameters were determined with WinNonlin v.6.4 software.

Regarding `COc1c(C)c2c(c(O)c1C/C=C(\C)CCC(=O)O)C(=O)OC2` [MPA, Mycophenolic acid], for the setting “male, beagle, 180 mg”, the concentration peaked (Cmax) at 29500 ± 12600 ng/mL, the “MPA Cmax” value was found to be 29460 ng/mL and the half-life was 5.55 ± 1.77 h. In addition, for the setting “male, beagle, po, 180 mg”, the concentration peaked (Cmax) at 27300 ± 12000 ng/mL, the “MPA Cmax” value is reported as 27320 ng/mL and the half-life is 4.49 h.
As for `COc1c(C)c2c(c(O)c1C/C=C(\C)CCC(=O)O)C(=O)OC2` [Na•MPA, sodium mycophenolate], the “MPA:metabolite ratios compared with oral MMF or enteric-coated Na.MPA” value is listed as “higher MPA:metabolite ratios”. Further, the MRT last (male beagle dogs, plasma, ORAL 180 mg (Myfortic enteric coated capsule), single dose, fasted, read-out: MPA MRTlast) worked out at 2.86 h. Further, where the note is “male, beagle, 180 mg”, the AUC(0-inf) came out at 31900 ng·h/mL, the AUC(0-t) is 31000 ng·h/mL, the “MPA Cmax” value worked out at 29460 ng/mL and the “MPA t1/2” value came to 5.55 h. In addition, for the setting “male, beagle, 180 mg”, the “MPA/AcMPAG Ratio (AUClast)” value is listed as 171.19, the “MPA/MPAG Ratio (AUC∞)” value is 2.45, the MRT last stood at 2.76 h and the Tmax is 0.23 h. For the setting “male, beagle, po, 180 mg”, the AUC(0-inf) was determined as 45700 ng·h/mL, the AUC(0-t) stood at 36400 ng·h/mL, the “MPA Cmax” value stood at 27320 ng/mL and the “MPA t1/2” value was found to be 4.49 h. Moreover, for the setting “male, beagle, po, 180 mg”, the “MPA/AcMPAG Ratio (AUClast)” value is 88.40, the “MPA/MPAG Ratio (AUClast)” value amounted to 1.42, the “MPA/MPAG Ratio (AUC∞)” value is listed as 1.29 and the Tmax was found to be 1 h.
